The term Ki denotes the dissociation constant of the complex between target and ligand, obtained from inhibition or displacement.

Molecules are shown by their SMILES. Bounds are passed on as bounds.

α5β3γ2 GABAA receptors, sequence (P31644 32-462): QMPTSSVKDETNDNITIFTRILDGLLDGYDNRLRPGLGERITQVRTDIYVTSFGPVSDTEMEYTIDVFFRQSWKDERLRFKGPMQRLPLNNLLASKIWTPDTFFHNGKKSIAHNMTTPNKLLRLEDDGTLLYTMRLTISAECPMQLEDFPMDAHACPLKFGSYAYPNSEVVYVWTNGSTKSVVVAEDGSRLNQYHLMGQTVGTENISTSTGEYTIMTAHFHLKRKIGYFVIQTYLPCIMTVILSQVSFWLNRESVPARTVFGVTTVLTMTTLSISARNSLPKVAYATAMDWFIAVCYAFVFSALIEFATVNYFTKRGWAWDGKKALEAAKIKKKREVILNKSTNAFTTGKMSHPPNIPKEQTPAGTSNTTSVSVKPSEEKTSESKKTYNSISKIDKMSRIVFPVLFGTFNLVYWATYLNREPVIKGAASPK
α5β3γ2 GABAA receptors, sequence (P28472 26-473 partner): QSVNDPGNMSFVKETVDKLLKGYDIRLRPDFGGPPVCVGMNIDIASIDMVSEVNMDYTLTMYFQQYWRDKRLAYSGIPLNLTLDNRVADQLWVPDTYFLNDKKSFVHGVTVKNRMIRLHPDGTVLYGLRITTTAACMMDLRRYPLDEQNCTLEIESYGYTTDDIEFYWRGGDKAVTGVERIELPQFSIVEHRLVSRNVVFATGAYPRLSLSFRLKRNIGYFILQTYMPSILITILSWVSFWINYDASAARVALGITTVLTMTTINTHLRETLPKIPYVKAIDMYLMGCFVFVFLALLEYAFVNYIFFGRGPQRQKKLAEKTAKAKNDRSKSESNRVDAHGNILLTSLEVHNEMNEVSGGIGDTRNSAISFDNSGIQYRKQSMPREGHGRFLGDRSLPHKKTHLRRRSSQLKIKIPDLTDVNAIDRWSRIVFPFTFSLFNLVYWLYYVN
α5β3γ2 GABAA receptors, sequence (P18507 40-475): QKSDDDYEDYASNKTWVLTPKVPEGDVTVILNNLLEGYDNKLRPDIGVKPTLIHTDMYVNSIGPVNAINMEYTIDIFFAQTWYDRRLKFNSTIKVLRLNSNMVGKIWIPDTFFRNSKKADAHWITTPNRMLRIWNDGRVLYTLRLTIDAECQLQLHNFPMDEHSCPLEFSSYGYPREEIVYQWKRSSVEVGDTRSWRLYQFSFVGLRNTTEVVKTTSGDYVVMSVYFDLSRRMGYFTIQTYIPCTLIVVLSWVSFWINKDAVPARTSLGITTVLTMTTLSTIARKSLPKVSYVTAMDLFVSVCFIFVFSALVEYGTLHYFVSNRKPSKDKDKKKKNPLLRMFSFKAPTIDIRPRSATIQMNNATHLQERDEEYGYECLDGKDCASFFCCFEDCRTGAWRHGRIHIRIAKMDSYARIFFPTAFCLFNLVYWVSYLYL

The first assay has as its target α5β3γ2 GABAA receptors (Homo sapiens, UniProt P18507+P31644). The experiment in a line: [3H]Ro15-1788 binding, membranes of Ltk cells stably expressing α5β3γ2 GABAA receptors.
Conditions: not given
In turn, `Cc1nnc(-c2ncn3c2Cc2cnnn2-c2cc(Cl)ccc2-3)s1` [Compound 509] gave an inhibition constant (Ki) of less than 100 nM.
Take `Cc1noc(-c2ncn3c2Cc2c(Cc4ccc(F)cc4)nnn2-c2cc(C(F)(F)F)ccc2-3)n1` [Compound 484]: the Ki is less than 100 nM.
In turn, `CCCc1noc(-c2ncn3c2Cc2c(Cc4cccc(F)c4)nnn2-c2cc(Cl)ccc2-3)n1` [Compound 480] had a Ki of 100 to 1000 nM.
Still for that read-out and setting: to `COCc1nnn2c1Cc1c(C#Cc3cnc(OC)s3)ncn1-c1ccc(OC)cc1-2` [Compound 647] belongs less than 100 nM.
The same measure, in the same setting: to `COc1ccc2c(c1)-n1nncc1Cc1c(C3=NCC(C4CCCCC4)O3)ncn1-2` (racemic) [Compound 690] belongs 100 to 1000 nM; to `COc1ccc2c(c1)-n1nncc1Cc1c(C3=NC[C@@H](c4cccc(F)c4)O3)ncn1-2` [Compound 692], less than 100 nM.
`Clc1cccc(COCc2ncn3c2Cc2cnnn2-c2cc(Cl)ccc2-3)c1` [Compound 542]: the Ki fell in the range of 100 to 1000 nM.

Still in this assay, the particulars now being: ranges; inhibition of [3H]Ro15-1788 binding.
On to `COCc1nnc2n1Cc1c(C#Cc3ccc(OC(C)C)nc3)ncn1-c1ccc(OC)cc1-2` [Compound 711], for which the Ki is less than 100 nM.
Molecule `COCc1nnn2c1Cc1c(C#Cc3ccc(OC)cn3)ncn1-c1ccc(Cl)cc1-2` [Compound 637] showed a Ki of less than 100 nM.
On the same count and under the same terms, for `Cc1nc(-c2ncn3c2Cc2cnnn2-c2cc(Cl)ccc2-3)no1` [Compound 539] the value was less than 100 nM; for `COCc1nnc2n1Cc1c(C#Cc3ccc(OC)cc3)ncn1-c1ccc(Cl)cc1-2` [Compound 526], less than 100 nM; for `COc1ccc2c(c1)-n1nncc1Cc1c(C#Cc3ccnn3C)ncn1-2` [Compound 669], less than 100 nM.
The same measure, in the same setting: to `FC(F)(F)c1ccc(C#Cc2ncn3c2Cc2cnnn2-c2cc(Cl)ccc2-3)nc1` [Compound 701] belongs less than 100 nM; to `Cc1nnc(-c2ncn3c2Cc2cnnn2-c2cc(Cl)ccc2-3)o1` [Compound 508], less than 100 nM.
Still for that read-out and setting: to `COCc1nnc2n1Cc1c(C#Cc3cnc(OC)s3)ncn1-c1ccc(Cl)cc1-2` [Compound 606, 5-((3-chloro-7-(methoxymethyl)-9H-benzo[f]imidazo[1,5-a][1,2,4]triazolo[4,3-d][1,4]diazepin-10-yl)ethynyl)-2-methoxythiazole] belongs less than 100 nM; to `Cc1noc(-c2ncn3c2Cc2c(Cc4ccc(F)cc4)nnn2-c2cc(OC(F)F)ccc2-3)n1` [Compound 492], less than 100 nM.
`COCc1nnc2n1Cc1c(C#Cc3cnc4occc4c3)ncn1-c1ccc(Cl)cc1-2` [Compound 680] showed a Ki of less than 100 nM.
On the same count and under the same terms, to `COCc1nnc2n1Cc1c(C#Cc3cnc(OC)cn3)ncn1-c1ccc(Cl)cc1-2` [Compound 578] belongs less than 100 nM.
`C#Cc1ccc2c(c1)-c1nnc(COC)n1Cc1c(C3=N[C@H](CC(C)C)CO3)ncn1-2` [Compound 280] returned a Ki of less than 100 nM.
In turn, `Fc1cccc(OCc2ncn3c2Cc2cnnn2-c2cc(Cl)ccc2-3)c1` [Compound 546] displayed a Ki of less than 100 nM.
Same read-out and setting: to `COCc1nnc2n1Cc1c(C#Cc3ncc(OC)cn3)ncn1-c1ccc(OC)cc1-2` [Compound 593] belongs less than 100 nM.
As for `COCc1nnc2n1Cc1c(C#Cc3ccc(OCC4CC4)nc3)ncn1-c1ccc(Cl)cc1-2` [Compound 700], the Ki was less than 100 nM.
The same measure, in the same setting: to `COCc1nnc2n1Cc1c(C#Cc3nc(C)cs3)ncn1-c1ccc(OC)cc1-2` [Compound 602] belongs less than 100 nM; to `FC(F)Oc1ccc2c(c1)-n1nncc1Cc1c(C3=NC[C@H](c4ccccc4)O3)ncn1-2` [Compound 625], 100 to 1000 nM; to `COCc1nnc2n1Cc1c(C#Cc3ncc(C)cn3)ncn1-c1ccc(Cl)cc1-2` [Compound 600], 100 to 1000 nM.
`CC1(C)OC(c2ncn3c2Cc2cnnn2-c2cc(OC(F)F)ccc2-3)=N[C@H]1c1ccccc1` [Compound 626] came in with a Ki of 100 to 1000 nM.
The same measure, in the same setting: to `COCc1nnc2n1Cc1c(C#Cc3ccc(C#N)cn3)ncn1-c1ccc(Cl)cc1-2` [Compound 577] belongs 100 to 1000 nM; to `COCc1nnc2n1Cc1c(-c3nc(C)no3)ncn1-c1cccc(OC)c1-2` [Compound 472], 100 to 1000 nM.
On the same count and under the same terms, to `COCc1nnc2n1Cc1c(C#Cc3cncnc3)ncn1-c1ccc(Cl)cc1-2` [Compound 569] belongs less than 100 nM.
Same read-out and setting: to `COCc1nnn2c1Cc1c(C#Cc3ccnn3C)ncn1-c1ccc(Cl)cc1-2` [Compound 642] belongs less than 100 nM; to `Cn1nccc1C#Cc1ncn2c1Cc1cnnn1-c1cc(Cl)ccc1-2` [Compound 660], less than 100 nM.
In turn, `C#Cc1ncn2c1Cn1c(COCC(F)(F)F)nnc1-c1cc(Cl)ccc1-2` [Compound 342] gave a Ki of less than 100 nM.
Same read-out and setting: to `Clc1ccc2c(c1)-n1nncc1Cc1c(C3=NCC(c4ccncc4)O3)ncn1-2` (stereo not shown) [Compound 629] belongs less than 100 nM; to `CCOc1ccc(C#Cc2ncn3c2Cn2c(COC)nnc2-c2cc(Cl)ccc2-3)cn1` [Compound 709], 100 to 1000 nM.
Still for that read-out and setting: to `CC(C)c1noc(-c2ncn3c2Cc2c(Cc4ccc(F)cc4)nnn2-c2cc(OC(F)(F)F)ccc2-3)n1` [Compound 483] belongs less than 100 nM; to `FC(F)(F)c1ccc2c(c1)-n1nncc1Cc1c(C3=N[C@H](c4ccccc4)CO3)ncn1-2` [Compound 506], less than 100 nM.
In the case of `Fc1cccc(Cc2nnn3c2Cc2c(-c4nc(-c5ccccc5)no4)ncn2-c2ccc(Cl)cc2-3)c1` [Compound 550], the Ki fell in the range of 100 to 1000 nM.
As to `COCc1nnc2n1Cc1c(C#Cc3ccc(OC(C)C)nc3)ncn1-c1ccc(Cl)cc1-2` [Compound 708], the Ki is less than 100 nM.
The same measure, in the same setting: for `COCc1nnc2n1Cc1c(C#Cc3ccc(C#N)cn3)ncn1-c1ccc(OC)cc1-2` [Compound 590] the value was 100 to 1000 nM; for `COCc1nnc2n1Cc1c(C#Cc3cccc(C)n3)ncn1-c1ccc(OC)cc1-2` [Compound 598], less than 100 nM; for `Cc1noc(-c2ncn3c2Cc2c(Cc4ccc(F)cc4)nnn2-c2cc(OC(F)(F)F)ccc2-3)n1` [Compound 478], less than 100 nM.
Still for that read-out and setting: to `COCc1nnc2n1Cc1c(C#Cc3ccc(OC)c(F)n3)ncn1-c1ccc(OC)cc1-2` [Compound 583] belongs 100 to 1000 nM; to `COCc1nnc2n1Cc1c(C#Cc3cnc(C)cn3)ncn1-c1ccc(OC)cc1-2` [Compound 588], less than 100 nM.
The same measure, in the same setting: to `Fc1ccc(OCc2ncn3c2Cc2cnnn2-c2cc(Cl)ccc2-3)cc1` [Compound 545] belongs less than 100 nM; to `COCc1nnc2n1Cc1c(C#Cc3ncc(C)s3)ncn1-c1ccc(OC)cc1-2` [Compound 601], less than 100 nM; to `COCc1nnc2n1Cc1c(C#Cc3ccc(Cl)cn3)ncn1-c1ccc(OC)cc1-2` [Compound 591], less than 100 nM.

For the next assay, the target named is T1, GABAA receptors (α5β2γ2) (Homo sapiens, UniProt P18507+P31644).
T1 construct: expressed in transfected cells
T1 sequence (P31644 32-462): as the sequence (P31644 32-462) above
T1 sequence (P47870 25-512, further chain): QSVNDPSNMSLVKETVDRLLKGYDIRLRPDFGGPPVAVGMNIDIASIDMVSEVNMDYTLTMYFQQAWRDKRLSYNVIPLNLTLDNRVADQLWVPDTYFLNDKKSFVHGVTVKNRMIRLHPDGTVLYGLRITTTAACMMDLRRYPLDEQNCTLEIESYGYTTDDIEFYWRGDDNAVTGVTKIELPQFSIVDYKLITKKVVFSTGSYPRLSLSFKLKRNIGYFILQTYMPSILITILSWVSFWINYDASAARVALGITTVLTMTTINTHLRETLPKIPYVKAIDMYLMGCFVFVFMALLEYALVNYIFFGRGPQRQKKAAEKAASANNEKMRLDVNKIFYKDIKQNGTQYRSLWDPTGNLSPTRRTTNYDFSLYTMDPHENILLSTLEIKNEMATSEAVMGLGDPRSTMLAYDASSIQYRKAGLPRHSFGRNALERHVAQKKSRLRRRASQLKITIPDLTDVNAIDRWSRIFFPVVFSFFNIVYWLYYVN
T1 sequence (P18507 40-475): as the sequence (P18507 40-475) above
The experiment in a line: Positive allosteric modulator activity: potentiation of EC20 GABA current in oocytes. Particulars: read-out: GABA α5 Functional Data (potentiation of EC20 GABA). In kind it is cell-based. As to the method: On day 1, 1 ng/32 nL of GABAA α5β2γ2 cDNA was injected into one oocyte. Test starts on day 2. The cDNA injected to the oocytes was a mix of alpha, beta and gamma, their ratio is 1:1:10 (by weight) and the total weight of the mixed 3 subunits to be injected in one oocyte was 1 ng in 32 nl volume. The injected oocytes can also be tested on day 3. In such case, the cDNA amount injected to the oocytes should be reduced by 20%.
1). 8 oocytes were placed in 8 chambers of OpusXpress and superfused with Modified Barth's Saline (MBS) at 3 mL/min. Glass electrodes back-filled with 3M KCl (0.5-3 megaohms) were used.
1). New oocytes were used to run new test.
3). […] Oocytes were washed with MBS for 5-10 min.
4). […] Itest was divided by IGABA to obtain potentiation (%).
Test Compounds at Multiple Doses • 1). Repeat the above steps 1), 2) and 3) in the control test. • 2). […] Divide Itest by IGABA to obtain potentiation (%). • 3). Discard all tested oocytes, new oocytes were used and the above steps 1) and 2) were repeated to test second concentration of the same compound. Each oocyte was used for only one concentration test for a single test compound. The steps were repeated for other test compounds.
Turning to `Cc1nnc(-c2ncn3c2Cc2cnnn2-c2cc(Cl)ccc2-3)s1` [Compound 509], the activation at 0.1 µM is 20 to 50%.

Staying with this assay, now noted: read-out: GABA α5 Functional Data (potentiation of EC20 GABA); @ 100 nM; ranges.
For `COCc1nnc2n1Cc1c(C#Cc3ccc(OC(C)C)nc3)ncn1-c1ccc(OC)cc1-2` [Compound 711], the activation at 0.1 µM fell in the range of 5 to 20%.
As for `COCc1nnn2c1Cc1c(C#Cc3ccc(OC)cn3)ncn1-c1ccc(Cl)cc1-2` [Compound 637], the activation at 0.1 µM lay in the range of 20 to 50%.
Still for that read-out and setting: for `Cc1nc(-c2ncn3c2Cc2cnnn2-c2cc(Cl)ccc2-3)no1` [Compound 539] the value was 5 to 20%; for `COCc1nnc2n1Cc1c(C#CCc3cccc(OC(F)(F)F)c3)ncn1-c1ccc(Cl)cc1-2` [Compound 423], 5 to 20%.
The same measure, in the same setting: for `COCc1nnc2n1Cc1c(C#Cc3ccc(OC)cc3)ncn1-c1ccc(Cl)cc1-2` [Compound 526] the value was 5 to 20%.
Turning to `COc1ccc2c(c1)-n1nncc1Cc1c(C#Cc3ccnn3C)ncn1-2` [Compound 669], the activation at 0.1 µM is more than 50%.
With `FC(F)(F)c1ccc(C#Cc2ncn3c2Cc2cnnn2-c2cc(Cl)ccc2-3)nc1` [Compound 701], the activation at 0.1 µM is 5 to 20%.
The same measure, in the same setting: for `COCc1nnc2n1Cc1c(C#CCc3cccc(F)c3)ncn1-c1ccc(Cl)cc1-2` [Compound 421] the value was 20 to 50%.
On the same count and under the same terms, to `Cc1nnc(-c2ncn3c2Cc2cnnn2-c2cc(Cl)ccc2-3)o1` [Compound 508] belongs 5 to 20%; to `COCc1nnc2n1Cc1c(C#Cc3cnc(OC)s3)ncn1-c1ccc(Cl)cc1-2` [Compound 606, 5-((3-chloro-7-(methoxymethyl)-9H-benzo[f]imidazo[1,5-a][1,2,4]triazolo[4,3-d][1,4]diazepin-10-yl)ethynyl)-2-methoxythiazole], 20 to 50%.
As to `Cc1noc(-c2ncn3c2Cc2c(Cc4ccc(F)cc4)nnn2-c2cc(OC(F)F)ccc2-3)n1` [Compound 492], the activation at 0.1 µM is 20 to 50%.
On the same count and under the same terms, for `COCc1nnc2n1Cc1c(C#Cc3cnc4occc4c3)ncn1-c1ccc(Cl)cc1-2` [Compound 680] the value was 20 to 50%; for `C#Cc1ncn2c1Cn1c(COc3ccccc3F)nnc1-c1cc(Cl)ccc1-2` [Compound 353, 15-chloro-5-ethynyl-9-(2-fluorophenoxymethyl)-2,4,8,10,11-pentaazatetracyclo[11.4.0.0^2,6.0^8,12]heptadeca-1(17),3,5,9,11,13,15-heptaene], more than 50%.
On the same count and under the same terms, to `COCc1nnc2n1Cc1c(C#CCc3cccc(Cl)c3)ncn1-c1ccc(Cl)cc1-2` [Compound 422] belongs 20 to 50%; to `COCc1nnc2n1Cc1c(C#Cc3ccn(C)n3)ncn1-c1ccc(OC)cc1-2` [Compound 687], more than 50%.
Still for that read-out and setting: to `COc1ccc2c(c1)-n1nncc1Cc1c(C#CCc3ccccc3OC(F)(F)F)ncn1-2` [Compound 420] belongs 5 to 20%.
As for `COCc1nnc2n1Cc1c(C#Cc3ccnn3C)ncn1-c1ccc(OC)cc1-2` [Compound 686], the activation at 0.1 µM is more than 50%.
The same measure, in the same setting: to `C#Cc1ncn2c1Cc1cnnn1-c1cc(Cl)ccc1-2` [Compound 356] belongs more than 50%; to `COCc1nnc2n1Cc1c(C#Cc3cnc(C)[nH]3)ncn1-c1ccc(OC)cc1-2` [Compound 685], more than 50%; to `CC(C)C#Cc1ccc2c(c1)-n1nncc1Cc1c(Br)ncn1-2` [Compound 454], 5 to 20%.
`COc1ccc2c(c1)-n1nncc1Cc1c(C#CCc3cccc(F)c3)ncn1-2` [Compound 419]: the activation at 0.1 µM lay within 20 to 50%.
As for `COc1ccc2c(c1)-n1nncc1Cc1c(C#CCc3cccc(Cl)c3)ncn1-2` [Compound 417], the activation at 0.1 µM is 5 to 20%.
Same read-out and setting: for `Clc1ccc2c(c1)-c1nnc(COCc3ccccc3)n1Cc1c(-c3ncco3)ncn1-2` [Compound 350] the value was more than 50%.

These data come from patent US11414425B2 (priority 2018, dated 2022).
